# Source: paper PMC10010643 (Cancer Chemotherapy and Pharmacology, 2023)
# “And” between values parts separate entries of the source, which are not always exact repeats. Equal values may be shown once. “Also recorded” adds a separate entry of the source. Read-outs that look alike come from different tables or passages of the source.
# Legend:
# [1] = system: panel of different targets including enzymes, receptors, and ion channels; design: method as in PMID 36154172; settings: cited from earlier work
# [2] = Plasma PK, Part A single oral doses in healthy participants; format: in vivo, human; settings: for AUC(0-t) / AUC(0-inf) / Cmax / Tmax / Vd/F / half-life: human, plasma; for Vd/F: read-out: Vz/F, geometric mean (CV%)
# Description: A further two cohorts were recruited. […] Each individual participated in one treatment period only, with the exception of the food-effect cohort (cohort A3) in which there were two treatment periods separated by at least 7 days washout. Participants resided at the Clinical Research Unit (CRU) from 1 day ahead of dosing (day − 1) to day 3 and returned for a follow-up visit 5–7 days after their final dose. For all cohorts, doses were administered in the fasted state in the morning of day 1 of Treatment Period 1. In the food-effect cohort, doses were given 30 min after the start of a high-fat breakfast (973 calories total: approximately 150 protein calories, 250 carbohydrate calories, and 500–600 fat calories) on day 1 of Treatment Period 2. For cohorts A1 to A5 in Treatment Period 1, dosing occurred such that one pair (one active and one placebo) were dosed at least 24 h before the remaining participants. Continuation to dose those who remained was at the investigator’s discretion. Escalating doses were administered following satisfactory sponsor and investigator review of the safety and tolerability data (up to 48 h post-final dose) and PK data (up to 24 h post-final dose) from the lower dose levels.
# Blood samples (4 mL) were collected in K3 EDTA tubes by venipuncture or cannulation. In Part A, samples were taken pre-dose and at 0.5, 1, 1.5, 2, 3, 4, 6, 8, 12, 16, 24, 36 and 48 h post-dose. In part B, samples were taken pre-dose on days 1 (pre-AM dose) and 10 (pre-final dose) and at 0.5, 1, 1.5, 2, 3, 4, 6, 8 and 12 h post-AM dose for day 1 and post-final dose for day 10. Samples were also taken on days 4–9 pre-AM dose, on day 11 at 24 and 36 h post-final dose, and on day 12 at 48 h post-final dose. Blood samples were centrifuged at 1500 g for 10 min at […] and split into two plasma aliquots.
# Urine was collected by spot collection in Part A only before dosing and between 0–6, 6–12, 12–24, and 24–48 h post-dose. Blood and urine aliquots were stored in polypropylene tubes at − 70 °C until bioanalysis.
# Noncompartmental PK analysis was performed on individual plasma and urine concentration data, using Phoenix® WinNonlin® 8.1 software (Certara USA Inc., Princeton NJ). Plasma PK parameter endpoints for Part A included area under the plasma concentration–time curve (AUC) from time 0 to infinity (AUC0–∞), AUC from time 0 to the time of the last quantifiable concentration (AUC0–tlast), maximum observed plasma concentration (Cmax), time of the maximum observed plasma concentration (Tmax), terminal half-life in plasma (t½), apparent total plasma clearance (CL/F), and apparent volume of distribution (Vz/F). Urine PK parameters calculated in Part A included amount of drug excreted in urine (Ae), percentage of dose excreted unchanged in urine (fe) and renal clearance (CLR).
# Dose proportionality was analyzed for exposure parameters after fasted doses. The power model was used on AUC0–∞, AUC0–tlast, and Cmax on day 1 in Part A. Data were analyzed over two dose ranges: 50–400 mg (50 mg capsules) and 5–50 mg (5 mg capsules). An analysis of variance was used on AUC0–τ and Cmax on day 10 in Part B. The effect of food on AUC0–∞, AUC0–tlast, and Cmax at 50 mg in Part A was investigated using a mixed model which included treatment as a fixed effect and subject as a random effect.
# [3] = Maximum recommended starting dose in humans from preclinical studies; design: species or system human
# Description: A starting dose of 5 mg was chosen as this was approximately twofold lower than the maximum recommended starting dose (MRSD) in humans of 9.6 mg determined from the results of a murine PD study, and was therefore not expected to have any pharmacological activity. This dose was also more than 30-fold lower than the MRSD of 162 mg calculated from the no observed adverse effect level in the toxicology species (mouse and dog).
# [4] = 50 mg after a high-fat meal vs fasted
smiles,measurement,setting,value
OC[C@H]1O[C@H](Sc2cncc(Br)c2)[C@H](O)[C@@H](n2cc(-c3cc(F)c(F)c(F)c3)nn2)[C@H]1O [GB1211],Safety profile against a panel of different targets,[1],favorable safety profile
same,Delay of absorption in the fed state,[2]; [4],2 h and ~ 2 h
same,Effect of food on systemic exposure,[2]; [4],unaffected; also recorded: did not markedly affect systemic exposure; also recorded: minor food-effect on drug disposition
same,Dose proportionality of systemic exposure,[2]; 5–50 mg (5 mg capsule) dose range,dose-proportional manner
same,Dose proportionality of systemic exposure,[2]; 50–400 mg (50 mg capsule) dose range,sub-proportional manner
same,AUC(0-t),"[2]; oral, 5 mg, single dose 5 mg (1 × 5 mg), fasted, read-out: AUC0–tlast, geometric mean (CV%)",677 ng·h/mL
same,AUC(0-inf),"[2]; oral, 5 mg, single dose 5 mg (1 × 5 mg), fasted, read-out: AUC0–∞, geometric mean (CV%)",712 ng·h/mL
same,Cmax,"[2]; oral, 5 mg, single dose 5 mg (1 × 5 mg), fasted, read-out: Cmax, geometric mean (CV%)",75.2 ng/mL
same,Tmax,"[2]; oral, 5 mg, single dose 5 mg (1 × 5 mg), fasted, read-out: Tmax, median (min–max)",2 h
same,Vd/F,"[2]; oral, 5 mg, single dose 5 mg (1 × 5 mg), fasted",114 L
same,half-life,"[2]; oral, 5 mg, single dose 5 mg (1 × 5 mg), fasted, read-out: t½, arithmetic mean (SD) (converted)",11.3 h
same,AUC(0-t),"[2]; oral, 20 mg, single dose 20 mg (4 × 5 mg), fasted, read-out: AUC0–tlast, geometric mean (CV%)",3150 ng·h/mL
same,AUC(0-inf),"[2]; oral, 20 mg, single dose 20 mg (4 × 5 mg), fasted, read-out: AUC0–∞, geometric mean (CV%)",3350 ng·h/mL
same,Cmax,"[2]; oral, 20 mg, single dose 20 mg (4 × 5 mg), fasted, read-out: Cmax, geometric mean (CV%)",365 ng/mL
same,Tmax,"[2]; oral, 20 mg, single dose 20 mg (4 × 5 mg), fasted, read-out: Tmax, median (min–max)",1.75 h
same,Vd/F,"[2]; oral, 20 mg, single dose 20 mg (4 × 5 mg), fasted",104 L
same,half-life,"[2]; oral, 20 mg, single dose 20 mg (4 × 5 mg), fasted, read-out: t½, arithmetic mean (SD) (converted)",12.2 h
same,AUC(0-t),"[2]; oral, 50 mg, Fasted, read-out: AUC0–tlast, geometric LS means",4180 ng·h/mL
same,AUC(0-inf),"[2]; oral, 50 mg, Fasted, read-out: AUC0–∞, geometric LS means",4520 ng·h/mL
same,Cmax,"[2]; oral, 50 mg, Fasted, read-out: Cmax, geometric LS means",358 ng/mL
same,AUC(0-t),"[2]; oral, 50 mg, Fed, read-out: AUC0–tlast, geometric LS means",4930 ng·h/mL
same,AUC(0-inf),"[2]; oral, 50 mg, Fed, read-out: AUC0–∞, geometric LS means",5420 ng·h/mL
same,Cmax,"[2]; oral, 50 mg, Fed, read-out: Cmax, geometric LS means",389 ng/mL
same,AUC(0-t),"[2]; oral, 50 mg, single dose 50 mg (1 × 50 mg), fasted, read-out: AUC0–tlast, geometric mean (CV%)",4180 ng·h/mL
same,AUC(0-inf),"[2]; oral, 50 mg, single dose 50 mg (1 × 50 mg), fasted, read-out: AUC0–∞, geometric mean (CV%)",4520 ng·h/mL
same,Cmax,"[2]; oral, 50 mg, single dose 50 mg (1 × 50 mg), fasted, read-out: Cmax, geometric mean (CV%)",358 ng/mL
same,Tmax,"[2]; oral, 50 mg, single dose 50 mg (1 × 50 mg), fasted, read-out: Tmax, median (min–max)",3.04 h
same,Vd/F,"[2]; oral, 50 mg, single dose 50 mg (1 × 50 mg), fasted",200 L
same,half-life,"[2]; oral, 50 mg, single dose 50 mg (1 × 50 mg), fasted, read-out: t½, arithmetic mean (SD) (converted)",12.7 h
same,AUC(0-t),"[2]; oral, 50 mg, single dose 50 mg (1 × 50 mg), fed, read-out: AUC0–tlast, geometric mean (CV%)",4930 ng·h/mL
same,AUC(0-inf),"[2]; oral, 50 mg, single dose 50 mg (1 × 50 mg), fed, read-out: AUC0–∞, geometric mean (CV%)",5420 ng·h/mL
same,Cmax,"[2]; oral, 50 mg, single dose 50 mg (1 × 50 mg), fed, read-out: Cmax, geometric mean (CV%)",389 ng/mL
same,Tmax,"[2]; oral, 50 mg, single dose 50 mg (1 × 50 mg), fed, read-out: Tmax, median (min–max)",5 h
same,Vd/F,"[2]; oral, 50 mg, single dose 50 mg (1 × 50 mg), fed",169 L
same,half-life,"[2]; oral, 50 mg, single dose 50 mg (1 × 50 mg), fed, read-out: t½, arithmetic mean (SD) (converted)",12.9 h
same,AUC(0-t),"[2]; oral, 50 mg, single dose 50 mg (10 × 5 mg), fasted, read-out: AUC0–tlast, geometric mean (CV%)",6890 ng·h/mL
same,AUC(0-inf),"[2]; oral, 50 mg, single dose 50 mg (10 × 5 mg), fasted, read-out: AUC0–∞, geometric mean (CV%)",7480 ng·h/mL
same,Cmax,"[2]; oral, 50 mg, single dose 50 mg (10 × 5 mg), fasted, read-out: Cmax, geometric mean (CV%)",861 ng/mL
same,Tmax,"[2]; oral, 50 mg, single dose 50 mg (10 × 5 mg), fasted, read-out: Tmax, median (min–max)",1.75 h
same,Vd/F,"[2]; oral, 50 mg, single dose 50 mg (10 × 5 mg), fasted",133 L
same,half-life,"[2]; oral, 50 mg, single dose 50 mg (10 × 5 mg), fasted, read-out: t½, arithmetic mean (SD) (converted)",13.8 h
same,AUC(0-t),"[2]; oral, 100 mg, single dose 100 mg (2 × 50 mg), fasted, read-out: AUC0–tlast, geometric mean (CV%)",5910 ng·h/mL
same,AUC(0-inf),"[2]; oral, 100 mg, single dose 100 mg (2 × 50 mg), fasted, read-out: AUC0–∞, geometric mean (CV%)",6380 ng·h/mL
same,Cmax,"[2]; oral, 100 mg, single dose 100 mg (2 × 50 mg), fasted, read-out: Cmax, geometric mean (CV%)",525 ng/mL
same,Tmax,"[2]; oral, 100 mg, single dose 100 mg (2 × 50 mg), fasted, read-out: Tmax, median (min–max)",3.5 h
same,Vd/F,"[2]; oral, 100 mg, single dose 100 mg (2 × 50 mg), fasted",282 L
same,half-life,"[2]; oral, 100 mg, single dose 100 mg (2 × 50 mg), fasted, read-out: t½, arithmetic mean (SD) (converted)",12.8 h
same,AUC(0-t),"[2]; oral, 200 mg, single dose 200 mg (4 × 50 mg), fasted, read-out: AUC0–tlast, geometric mean (CV%)",11500 ng·h/mL
same,AUC(0-inf),"[2]; oral, 200 mg, single dose 200 mg (4 × 50 mg), fasted, read-out: AUC0–∞, geometric mean (CV%)",12900 ng·h/mL
same,Cmax,"[2]; oral, 200 mg, single dose 200 mg (4 × 50 mg), fasted, read-out: Cmax, geometric mean (CV%)",1010 ng/mL
same,Tmax,"[2]; oral, 200 mg, single dose 200 mg (4 × 50 mg), fasted, read-out: Tmax, median (min–max)",3.5 h
same,Vd/F,"[2]; oral, 200 mg, single dose 200 mg (4 × 50 mg), fasted",344 L
same,half-life,"[2]; oral, 200 mg, single dose 200 mg (4 × 50 mg), fasted, read-out: t½, arithmetic mean (SD) (converted)",15.5 h
same,AUC(0-t),"[2]; oral, 400 mg, single dose 400 mg (8 × 50 mg), fasted, read-out: AUC0–tlast, geometric mean (CV%)",19000 ng·h/mL
same,AUC(0-inf),"[2]; oral, 400 mg, single dose 400 mg (8 × 50 mg), fasted, read-out: AUC0–∞, geometric mean (CV%)",21600 ng·h/mL
same,Cmax,"[2]; oral, 400 mg, single dose 400 mg (8 × 50 mg), fasted, read-out: Cmax, geometric mean (CV%)",1550 ng/mL
same,Tmax,"[2]; oral, 400 mg, single dose 400 mg (8 × 50 mg), fasted, read-out: Tmax, median (min–max)",4 h
same,Vd/F,"[2]; oral, 400 mg, single dose 400 mg (8 × 50 mg), fasted",398 L
same,half-life,"[2]; oral, 400 mg, single dose 400 mg (8 × 50 mg), fasted, read-out: t½, arithmetic mean (SD) (converted)",15.2 h
same,Tmax,"[2]; oral, 5–50 mg (5 mg capsule), single dose, fasted, read-out: Median Tmax, range across doses",1.75 to 2 h
same,Tmax,"[2]; oral, 50–400 mg (50 mg capsule), single dose, fasted, read-out: Median Tmax, range across doses",3.04 to 4 h
same,half-life,"[2]; po, single and multiple oral doses, fasted, read-out: Mean half-life, range across doses",11 to 16 h
same,Tmax,"[2]; po, single and multiple oral doses, fasted, read-out: Time of maximum plasma concentration (median), range across doses",1.75 to 4 h
same,half-life,"[2]; po, single oral dose, read-out: Arithmetic mean terminal half-life (t½), range across doses",11.3 to 15.5 h
same,"CL/F, geometric mean (CV%)","[2]; single dose 5 mg (1 × 5 mg), fasted",7.02 (24.5) L/h
same,"CL/F, geometric mean (CV%)","[2]; single dose 20 mg (4 × 5 mg), fasted",5.97 (10.2) L/h
same,"CL/F, geometric mean (CV%)","[2]; single dose 50 mg (1 × 50 mg), fasted",11.1 (43.2) L/h
same,"CL/F, geometric mean (CV%)","[2]; single dose 50 mg (1 × 50 mg), fed",9.23 (21.5) L/h
same,"CL/F, geometric mean (CV%)","[2]; single dose 50 mg (10 × 5 mg), fasted",6.69 (42.6) L/h
same,"CL/F, geometric mean (CV%)","[2]; single dose 100 mg (2 × 50 mg), fasted",15.7 (21.1) L/h
same,"CL/F, geometric mean (CV%)","[2]; single dose 200 mg (4 × 50 mg), fasted",15.5 (33.7) L/h
same,"CL/F, geometric mean (CV%)","[2]; single dose 400 mg (8 × 50 mg), fasted",18.5 (25.0) L/h
same,Maximum recommended starting dose (MRSD),[3]; calculated from the no observed adverse effect level in the toxicology species (mouse and dog),162 mg
same,Maximum recommended starting dose (MRSD) in humans,[3]; determined from the results of a murine PD study,9.6 mg
